This note sets out measurements from publication PMC3969223, “Characterization of WZ4003 and HTH-01-015 as selective inhibitors of the LKB1-tumour-suppressor-activated NUAK kinases” (Biochemical Journal, 2013).

Each structure is given as a SMILES string.

In assay [1] the test system is MYPT1 phosphorylation. The experiment in a line: MYPT1 phosphorylation on detachment, MEFs. The class given is cell-based, mouse. Conditions: 10 μM, 16 h. As to the method:
Figure 7 NUAK1 inhibition suppresses cell proliferation (A) U2OS cells were incubated with or without 10 μM WZ4003 or 10 μM HTH-01-015 and a cell proliferation assay was carried out over 5 days in triplicate using the CellTiter 96® AQueous Non-Radioactive Cell Proliferation Assay kit (Promega) (as described in the Materials and methods section). U2OS cells in which NUAK1 has been knocked-down using two different shRNA hairpins were used in parallel as controls. The efficiency of the knock down of each shRNA is shown in top panel. SCR, control scrambled shRNA hairpin; shNUAK1 (1), first NUAK1 shRNA hairpin; shNUAK1 (2), second NUAK1 shRNA hairpin. (B) U2OS cells were treated with (+) or without (−) 10 μM WZ4003 or 10 μM HTH-01-015. After 16 h cell media was removed and cells were treated with EDTA-PBS-based cell dissociation buffer supplemented with 10 μM WZ4003, 10 μM HTH-01–015 or DMSO for 20 min. Cell detachment was induced with gentle tapping of the plates followed by gentle centrifugation at 70 g for 3 min. Cells were lysed immediately after removal of the media and immunoblotted for the detection of the indicated antibodies. (C and D) As above, except NUAK1^+/+ and NUAK1^−/− MEFs were used. Similar results were obtained in three separate experiments.

Assay [2] has as its system MYPT1 Ser445 phosphorylation. The experiment in a line: MYPT1 Ser445 phosphorylation, HEK-293 Flp/In T-Rex overexpressing HA-NUAK1[A195T]. The assay is classed as cell-based, human. The following applies: cells expressing drug-resistant NUAK1[A195T]; 30 μM. As to the method:
HEK (human embryonic kidney)-293 and U2OS cells were cultured in DMEM (Dulbecco's modified Eagle's medium) supplemented with 10% FBS, 2 mM glutamine and 1×antibacterial/antimycotic solution. NUAK1^+/+ and NUAK1^−/− MEFs were cultured in DMEM supplemented with 10% (v/v) FBS and 2 mM glutamine, 1×antibacterial/antimycotic solution, 1% (v/v) non-essential amino acids and 1% (v/v) sodium pyruvate. HEK-293 Flp/In T-Rex cell lines were cultured in DMEM supplemented with 10% (v/v) FBS and 2 mM glutamine, 1×antibacterial/antimycotic solution, 100 μg/ml hygromycin and 15 μg/ml blasticidin. Supplementing the culture medium with 0.1 μg/ml doxycycline for 16–24 h induced protein expression in the HEK-293 Flp/In T-Rex cells. Cell counting was carried out using Invitrogen Countess following the manufacturer's protocol. A cell-detachment assay was carried out on HEK-293 cells using PBS-EDTA-based cell dissociation buffer as described previously. An inhibitor dose-dependence assay was carried out by treating the cells with various concentrations of the inhibitors as indicated in the Figure legends. The inhibitors were dissolved in DMSO and the total concentration of DMSO in the culture media never exceeded 1%. Transient transfections of HEK-293 cells were carried out using PEI [24]. Stable transfections were carried out in HEK-293 Flp/In T-Rex cells (Invitrogen) following the manufacturer's protocol. […]

Assay [3] concerns the target MINK1 (Homo sapiens, UniProt Q8N4C8). The experiment in a line: Kinase profiling. The class given is biochemical. Conditions: 0.1 or 1 μM inhibitor; mean of triplicate. The procedure, abridged: (§1)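 Screened in vitro against a 140-kinase panel with inhibitor at 0.1 or 1 μM. Values are percent of kinase activity remaining relative to DMSO control reactions, averaged from triplicate reactions ±S.D.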

Assay [4] concerns the target RIPK2 (Homo sapiens, UniProt O43353). The experiment in a line: Kinase profiling. The class given is biochemical. Conditions: 0.1 or 1 μM inhibitor; mean of triplicate. The procedure, abridged: as §1
The target in assay [5] is MEKK1 (Homo sapiens, UniProt Q13233). The experiment in a line: Kinase profiling. The class given is biochemical. Conditions: 0.1 or 1 μM inhibitor; mean of triplicate. The procedure, abridged:
as §1

The target of assay [6] is TTBK1 (Homo sapiens, UniProt Q5TCY1). The experiment in a line: Kinase profiling. Conditions: 0.1 or 1 μM inhibitor; mean of triplicate. The class given is biochemical. Put shortly:
as §1

Assay [7] has as its target PKCγ (Homo sapiens, UniProt P05129). The experiment in a line: Kinase profiling. The assay is classed as biochemical. The following applies: 0.1 or 1 μM inhibitor; mean of triplicate. The procedure, abridged:
as §1

In assay [8] the target is PKCζ (Homo sapiens, UniProt Q05513). The experiment in a line: Kinase profiling. The assay is classed as biochemical. The following applies: 0.1 or 1 μM inhibitor; mean of triplicate. Put shortly:
as §1

The target in assay [9] is CAMKKβ (Homo sapiens, UniProt Q96RR4). The experiment in a line: Kinase profiling. The assay is classed as biochemical. Conditions: 0.1 or 1 μM inhibitor; mean of triplicate. Put shortly: as §1
Assay [10] concerns the target MARK1 (Homo sapiens, UniProt Q9P0L2). The experiment in a line: Kinase profiling. The class given is biochemical. The procedure, abridged:
as §1

In assay [11] the target is EIF2AK3 (Homo sapiens, UniProt Q9NZJ5). The experiment in a line: Kinase profiling. The class given is biochemical. The following applies: 0.1 or 1 μM inhibitor; mean of triplicate. Put shortly:
as §1

Assay [12] addresses PDK1 (Homo sapiens, UniProt O15530). The experiment in a line: Kinase profiling. Conditions: 0.1 or 1 μM inhibitor; mean of triplicate. The assay is classed as biochemical. Put shortly:
as §1

Chain of PDK1 (O15530 whole entry): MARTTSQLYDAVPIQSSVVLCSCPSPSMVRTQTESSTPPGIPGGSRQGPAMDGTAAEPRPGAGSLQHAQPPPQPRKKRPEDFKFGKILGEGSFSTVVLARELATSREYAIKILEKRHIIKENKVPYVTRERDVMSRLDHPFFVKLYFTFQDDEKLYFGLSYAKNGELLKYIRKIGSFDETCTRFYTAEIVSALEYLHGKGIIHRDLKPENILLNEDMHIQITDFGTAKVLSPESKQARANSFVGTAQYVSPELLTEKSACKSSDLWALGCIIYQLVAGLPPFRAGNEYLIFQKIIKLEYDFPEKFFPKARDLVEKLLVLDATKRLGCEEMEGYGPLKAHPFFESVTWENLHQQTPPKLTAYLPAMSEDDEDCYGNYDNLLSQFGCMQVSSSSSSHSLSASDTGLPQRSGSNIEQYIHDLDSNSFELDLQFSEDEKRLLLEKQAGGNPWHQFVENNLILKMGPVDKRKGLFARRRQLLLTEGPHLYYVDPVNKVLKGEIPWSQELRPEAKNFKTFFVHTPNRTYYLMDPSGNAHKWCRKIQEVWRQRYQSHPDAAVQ
Chain of RIPK2 (O43353 whole entry): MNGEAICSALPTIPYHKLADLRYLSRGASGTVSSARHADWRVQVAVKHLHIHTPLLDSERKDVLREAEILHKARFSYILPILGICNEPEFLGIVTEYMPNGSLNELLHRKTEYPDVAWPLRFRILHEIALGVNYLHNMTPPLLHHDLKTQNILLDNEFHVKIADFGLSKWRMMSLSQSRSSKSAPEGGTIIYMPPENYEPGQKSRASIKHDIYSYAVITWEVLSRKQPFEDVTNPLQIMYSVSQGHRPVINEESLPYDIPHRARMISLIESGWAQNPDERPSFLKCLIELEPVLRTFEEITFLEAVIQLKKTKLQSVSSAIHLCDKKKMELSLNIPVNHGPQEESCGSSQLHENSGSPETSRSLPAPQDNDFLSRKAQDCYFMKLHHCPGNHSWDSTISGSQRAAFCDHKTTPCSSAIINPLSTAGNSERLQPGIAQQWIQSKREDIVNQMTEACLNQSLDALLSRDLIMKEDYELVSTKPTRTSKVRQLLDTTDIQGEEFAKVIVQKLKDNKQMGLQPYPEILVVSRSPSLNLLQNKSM
Chain of TTBK1 (Q5TCY1 whole entry): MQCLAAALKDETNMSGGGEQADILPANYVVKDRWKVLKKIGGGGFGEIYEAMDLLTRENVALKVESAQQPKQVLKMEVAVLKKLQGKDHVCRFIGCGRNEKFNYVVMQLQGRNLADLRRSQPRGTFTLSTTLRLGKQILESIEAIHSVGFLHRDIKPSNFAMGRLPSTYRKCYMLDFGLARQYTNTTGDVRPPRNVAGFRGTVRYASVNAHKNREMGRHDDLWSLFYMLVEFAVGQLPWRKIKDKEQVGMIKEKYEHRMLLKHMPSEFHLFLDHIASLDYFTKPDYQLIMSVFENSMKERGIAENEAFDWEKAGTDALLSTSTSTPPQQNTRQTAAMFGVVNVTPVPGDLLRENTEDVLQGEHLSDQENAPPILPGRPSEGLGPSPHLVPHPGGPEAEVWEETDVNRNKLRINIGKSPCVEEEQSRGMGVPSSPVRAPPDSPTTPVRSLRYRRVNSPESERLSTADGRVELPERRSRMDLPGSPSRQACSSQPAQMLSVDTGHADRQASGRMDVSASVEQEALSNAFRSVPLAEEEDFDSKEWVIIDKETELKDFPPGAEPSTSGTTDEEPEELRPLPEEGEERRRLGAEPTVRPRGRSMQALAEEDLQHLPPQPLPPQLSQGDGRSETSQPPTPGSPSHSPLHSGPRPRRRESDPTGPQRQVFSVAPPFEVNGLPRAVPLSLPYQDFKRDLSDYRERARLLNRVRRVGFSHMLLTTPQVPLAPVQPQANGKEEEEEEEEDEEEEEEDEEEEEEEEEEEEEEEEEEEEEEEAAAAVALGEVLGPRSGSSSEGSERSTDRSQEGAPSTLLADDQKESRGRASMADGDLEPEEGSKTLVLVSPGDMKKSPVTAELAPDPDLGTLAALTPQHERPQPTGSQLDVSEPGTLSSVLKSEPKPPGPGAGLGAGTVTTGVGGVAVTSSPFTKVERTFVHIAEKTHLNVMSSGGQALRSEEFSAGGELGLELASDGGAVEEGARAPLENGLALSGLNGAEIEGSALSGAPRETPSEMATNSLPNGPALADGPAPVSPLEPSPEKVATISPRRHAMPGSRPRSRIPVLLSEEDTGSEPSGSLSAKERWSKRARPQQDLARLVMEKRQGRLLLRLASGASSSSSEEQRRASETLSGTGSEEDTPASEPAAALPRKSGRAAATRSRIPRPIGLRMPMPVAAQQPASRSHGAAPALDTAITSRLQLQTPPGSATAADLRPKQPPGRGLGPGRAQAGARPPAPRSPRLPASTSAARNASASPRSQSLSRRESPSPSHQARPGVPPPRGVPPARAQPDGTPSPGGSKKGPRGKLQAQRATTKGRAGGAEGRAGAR
Chain of PKCζ (Q05513 whole entry): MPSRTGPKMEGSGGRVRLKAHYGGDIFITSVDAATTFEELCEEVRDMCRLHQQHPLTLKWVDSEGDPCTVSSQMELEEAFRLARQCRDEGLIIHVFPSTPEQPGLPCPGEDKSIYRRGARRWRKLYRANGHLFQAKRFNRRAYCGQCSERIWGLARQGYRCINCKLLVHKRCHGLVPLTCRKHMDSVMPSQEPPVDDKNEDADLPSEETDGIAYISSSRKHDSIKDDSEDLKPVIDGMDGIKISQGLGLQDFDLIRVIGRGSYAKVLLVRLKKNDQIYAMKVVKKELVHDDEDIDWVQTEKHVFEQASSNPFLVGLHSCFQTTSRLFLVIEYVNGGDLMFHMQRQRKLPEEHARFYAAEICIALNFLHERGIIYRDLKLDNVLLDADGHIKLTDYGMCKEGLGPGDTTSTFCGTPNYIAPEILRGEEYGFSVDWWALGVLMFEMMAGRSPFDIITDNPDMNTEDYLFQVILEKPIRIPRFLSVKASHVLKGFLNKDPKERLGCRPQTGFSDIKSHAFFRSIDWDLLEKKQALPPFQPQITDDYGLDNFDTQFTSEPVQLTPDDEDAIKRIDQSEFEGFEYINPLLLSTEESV
Chain of CAMKKβ (Q96RR4 whole entry): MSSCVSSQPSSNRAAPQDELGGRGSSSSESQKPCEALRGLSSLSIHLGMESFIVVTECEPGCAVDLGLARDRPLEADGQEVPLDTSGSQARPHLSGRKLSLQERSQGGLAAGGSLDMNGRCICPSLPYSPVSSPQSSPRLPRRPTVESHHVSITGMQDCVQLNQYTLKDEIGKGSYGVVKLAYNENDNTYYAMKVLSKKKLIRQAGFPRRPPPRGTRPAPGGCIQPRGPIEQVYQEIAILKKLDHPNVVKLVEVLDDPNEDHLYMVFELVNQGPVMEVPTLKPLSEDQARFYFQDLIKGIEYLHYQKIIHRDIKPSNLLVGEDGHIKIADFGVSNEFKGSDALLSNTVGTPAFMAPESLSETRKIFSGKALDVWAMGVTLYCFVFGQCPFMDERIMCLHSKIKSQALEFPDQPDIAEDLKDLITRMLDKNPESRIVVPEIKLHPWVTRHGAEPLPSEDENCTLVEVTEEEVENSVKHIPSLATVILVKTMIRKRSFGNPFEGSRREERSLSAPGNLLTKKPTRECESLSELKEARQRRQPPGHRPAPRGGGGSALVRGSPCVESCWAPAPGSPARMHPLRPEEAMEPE

As to `Cc1nc(Nc2cnn(C3CCNCC3)c2)nc2c1N(C)C(=O)c1cc3ccccc3cc1N2C` [HTH-01-015], in assay [1], the “Suppression of MYPT1 phosphorylation in MEFs (in words)” value is “to the same extent as NUAK1-knockout”. The “Block of MYPT1 Ser445 phosphorylation (in words)” value in assay [2] was “failed to block”. For the same compound, the “MINK1 activity, percentage of DMSO control” value in [3] was determined as 101 percentage. In assay [4], the “RIPK2 activity, percentage of DMSO control” value came out at 88 percentage. Also, the “MEKK1 activity, percentage of DMSO control” value in assay [5] turned out to be 110 percentage. For the same compound, the “TTBK1 activity, percentage of DMSO control” value in assay [6] turned out to be 124 percentage. Also, in assay [7], the “PKCγ activity, percentage of DMSO control” value is given as 107 percentage. The “PKCζ activity, percentage of DMSO control” value in assay [8] is on record as 98 percentage. Besides, the “CAMKKβ activity, percentage of DMSO control” value in assay [9] is given as 87 percentage. Moreover, the “MARK1 activity, percentage of DMSO control” value in [10] (0.1 or 1 μM inhibitor, mean of triplicate) was 106 percentage. Further, in assay [11], the “EIF2AK3 activity, percentage of DMSO control” value turned out to be 99 percentage. Moreover, the “PDK1 activity, percentage of DMSO control” value in assay [12] worked out at 102 percentage.

`CCC(=O)Nc1cccc(Oc2nc(Nc3ccc(N4CCN(C)CC4)cc3OC)ncc2Cl)c1` [WZ4003]: in assay [1], the “Suppression of MYPT1 phosphorylation in MEFs (in words)” value is given as “to the same extent as NUAK1-knockout”. Besides, the “Block of MYPT1 Ser445 phosphorylation (in words)” value in assay [2] is “failed to block”. The “MINK1 activity, percentage of DMSO control” value in assay [3] is reported as 120 percentage. In addition, the “RIPK2 activity, percentage of DMSO control” value in assay [4] came to 105 percentage. Also, the “MEKK1 activity, percentage of DMSO control” value in assay [5] worked out at 91 percentage. In addition, the “TTBK1 activity, percentage of DMSO control” value in assay [6] is 78 percentage. Further, the “PKCγ activity, percentage of DMSO control” value in assay [7] is 103 percentage. For the same compound, the “PKCζ activity, percentage of DMSO control” value in assay [8] was found to be 86 percentage. In addition, the “CAMKKβ activity, percentage of DMSO control” value in assay [9] is given as 44 percentage. In assay [11], the “EIF2AK3 activity, percentage of DMSO control” value stood at 76 percentage. In [12], the “PDK1 activity, percentage of DMSO control” value stood at 104 percentage.

Regarding `CN1C(=O)c2ccccc2N(C)c2nc(Nc3cnn(C4CCNCC4)c3)ncc21` [XMD-17-51], the “Inhibition of MARK1 in profiling (in words)” value in assay [10] (1 μM) is on record as “inhibited”.
